Source: patent US12168673B2 (Mitopower, Inc., priority 2022, dated 2024)
Each block holds one compound with its values, some of them ahead of it.

What was measured:
Huh-7 Cells = assay: Cellular NAD+ levels in Huh-7 cells (LCMS/MS); format: cell-based; conditions: 125 μm, four hours of incubation
Procedure: Huh-7 Cells, sourced from NCCS Pune, were cultured in RPMI media containing FBS & Antibiotics. Cells from different flasks (80-90% confluent) were pooled into a 15 mL conical tube and centrifuged for 5 mins at 1200 rpm for 5 mins. The supernatant solution was discarded, and the pellet was washed with 5 mL sterile PBS (without Ca^2+ and Mg^2+). The tube was then centrifuged at 1200 rpm for 5 mins and the supernatant was discarded. The cell pellet was resuspended in 7 mL of RPMI media, and a cell count was done using 10 uL of the cell solution. 1.5 million cells from the cell solution were seeded into 1.5 mL microcentrifuge tubes. […] The tubes were placed in racks and gently swirled to mix the compounds into the media containing the cells. These tubes were then incubated for 4 hours in a 37° C. incubator at 5% CO2. After 4 hours of incubation the cells were spun down at 1000 rpm for 10 mins, the supernatant was discarded carefully, and cells were snap frozen in liquid nitrogen. When the samples were run, the extraction of the cells was on ice, cells were lysed using 20 uL deionized water and then ice cold 80% methanol containing the internal standard—Rac-Tenofovir D was added. The tubes were then vortexed at 2500 rpm for 8 minutes and then centrifuged at […] for 10 minutes. 150 uL of the supernatant was carefully transferred to HPLC vials and was analyzed for NAD^+ on the Abscised 4000 Q Trap LCMS/MS system. A C18, 3.5 μm, 2.1×100 mm, Bridge Column was used in the LC. The mobile phase consisted of 10 mM ammonium acetate with 0.1% acetic acid & 0.1% hexylamine as Solvent-A and 10 mM Ammonium acetate with 0.1% acetic acid and 0.1% hexylamine in 95/5 MeOH/H2O as Solvent-B. The gradient used was 0 mins-0.0% B, 0.5 mins-100% B, 1.5 mins-100% B, 3.0 mins-100% B, 3.1 mins-0.0% B, 7.0-STOP. The column flow rate was 0.5 mL/min. The sample injection volume was […].

[1] = Human hepatocyte clearance; format: in vitro ADME; conditions: human hepatocytes
Procedure: A hepatocyte vial was taken out from the liquid nitrogen tank and was thawed in a water bath maintained at 37° C. The thawed cell suspension was transferred into a torsion tube containing 50 mL of thawing media (Xenotech). The thawing media containing hepatocytes was centrifuged at 1000 rpm for 5 min, the supernatant was discarded and the pellet was resuspended in 2 ml of Xenotech OptiIncubate Media. The cells were counted by using a haemocytometer after mixing an aliquot of cell suspension with equal volume of trypan blue. The cell suspension was diluted to a working density of 2 million cells with DMEM media without FBS/incubation media.
The assay was performed in duplicates (n=2). 150 μL of 2 million cell working stock of hepatocyte cell suspension was added to a 24 well plate and incubated in a 37° C. incubator, with speed of 500 RPM for 10 min. 150 μL of 2 μM working stock of test compound was incubated separately. The reaction at 0, 15, 30, 60 and 90 min was stopped by precipitating 20 μL of incubation mixture with 200 μL of acetonitrile containing internal standard. […] The supernatant was separated and diluted 1:1 with water before injecting in LC-MS/MS analysis.

[2] = Stability in solutions (pH range, simulated gastric fluid, simulated intestinal fluid); format: physicochemical
Procedure: 1 mg/ml solutions of compound 100 were prepared in each buffer, diluted to 0.1 mg/ml in methanol at each time point and analyzed as follows: Gemini C-18, 250×4.6 mm, 5 im, Mobile Phase: Methanol Isocratic Flow Rate: 0.4 mL/min.

[3] = Caco-2 permeability assay; conditions: human
Source text: The endpoint measured is the intestinal permeability expressed as apparent permeability—Papp value. All permeability values are represented as ×10^−6 cm/sec.

human hepatocytes = assay: Human hepatocyte stability
Procedure: 10 mM stock solution of test compound was prepared in DMSO and diluted to a concentration of 1 mM with DMSO. Working concentration of 2 μM was prepared by further dilution with PBS. Preincubation mixture of 150 μL of hepatocyte cell suspension (1,000,000 cells/mL, INVITROGRO HT medium buffer), was added to vials for preincubation for 10 min @37° C.
150 μL of 2 μM working stock of the test compound was added to the cell suspension and incubated at @37 C at 500 rpm. The reaction was stopped at 0, 15, 30, 60 and 90 min by precipitating 50 μL of the incubation mixture with 150 μL of acetonitrile. Samples were vortexed for 5 min at 1200 rpm and centrifuged at 4000 rpm for 10 min. 150 μL of the supernatant was diluted with 150 μL of water and injected in MS system (SCIEX, API 4500 Q Trap) for analysis.

[4] = SGF (simulated gastric fluid), 0 h
[5] = SGF (simulated gastric fluid), 1 week
[6] = SGF (simulated gastric fluid), 1 h
[7] = SGF (simulated gastric fluid), 2 h
[8] = SGF (simulated gastric fluid), 4 h
[9] = SGF (simulated gastric fluid), 8 h
[10] = SGF (simulated gastric fluid), 24 h
[11] = SGF (simulated gastric fluid), 48 h
[12] = SIF (simulated intestinal fluid), 0 h
[13] = SIF (simulated intestinal fluid), 1 week
[14] = SIF (simulated intestinal fluid), 1 h
[15] = SIF (simulated intestinal fluid), 2 h
[16] = SIF (simulated intestinal fluid), 4 h
[17] = SIF (simulated intestinal fluid), 8 h
[18] = SIF (simulated intestinal fluid), 24 h
[19] = SIF (simulated intestinal fluid), 48 h

Structure (SMILES): O=C(OC1O[C@H](CO)[C@@H](O)[C@H]1O)c1cccnc1 (stereo partly drawn) [Compound 100, (3R, 4S, 5R)-3,4-dihydroxy-5-(hydroxymethyl) tetrahydrofuran-2-yl nicotinate]
NAD+ level increase compared to untreated cells (Huh-7 Cells): showed an increase | half-life at 1 μM [1]: 2.38 h | hepatocyte CLint at 1 μM [1]: 4.86 µL/min/1e6 cells | % remaining [2, 4]: 100.0% | % remaining [2, 5]: 43.4% | % remaining [2, 6]: 99.1% | % remaining [2, 7]: 89.2% | % remaining [2, 8]: 79.6% | % remaining [2, 9]: 65.4% | % remaining [2, 10]: 71.7% | % remaining [2, 11]: 55.0% | % remaining [2, 12]: 100.0% | % remaining [2, 13]: 30.7% | % remaining [2, 14]: 76.4% | % remaining [2, 15]: 64.5% | % remaining [2, 16]: 41.4% | % remaining [2, 17]: 40.5% | % remaining [2, 18]: 36.7% | % remaining [2, 19]: 38.7% | % remaining ([2]; pH 1, 0 h): 100.0% | % remaining ([2]; pH 1, 1 week): 46.5% | % remaining ([2]; pH 1, 1 h): 100.9% | % remaining ([2]; pH 1, 2 h): 104.8% | % remaining ([2]; pH 1, 4 h): 80.7% | % remaining ([2]; pH 1, 8 h): 49.0% | % remaining ([2]; pH 1, 24 h): 53.0% | % remaining ([2]; pH 1, 48 h): 45.6% | % remaining ([2]; pH 2, 0 h): 100.0% | % remaining ([2]; pH 2, 1 week): 31.9% | % remaining ([2]; pH 2, 1 h): 91.9% | % remaining ([2]; pH 2, 2 h): 93.8% | % remaining ([2]; pH 2, 4 h): 93.0% | % remaining ([2]; pH 2, 8 h): 54.8% | % remaining ([2]; pH 2, 24 h): 28.6% | % remaining ([2]; pH 2, 48 h): 36.0% | % remaining ([2]; pH 4, 0 h): 100.0% | % remaining ([2]; pH 4, 1 week): 45.4% | % remaining ([2]; pH 4, 1 h): 95.7% | % remaining ([2]; pH 4, 2 h): 99.2% | % remaining ([2]; pH 4, 4 h): 97.9% | % remaining ([2]; pH 4, 8 h): 49.0% | % remaining ([2]; pH 4, 24 h): 42.3% | % remaining ([2]; pH 4, 48 h): 42.9% | % remaining ([2]; pH 6, 0 h): 100.0% | % remaining ([2]; pH 6, 1 week): 48.1% | % remaining ([2]; pH 6, 1 h): 92.0% | % remaining ([2]; pH 6, 2 h): 86.4% | % remaining ([2]; pH 6, 4 h): 70.9% | % remaining ([2]; pH 6, 8 h): 50.4% | % remaining ([2]; pH 6, 24 h): 55.1% | % remaining ([2]; pH 6, 48 h): 47.7% | % remaining ([2]; pH 7.4, 0 h): 100.0% | % remaining ([2]; pH 7.4, 1 week): 34.2% | % remaining ([2]; pH 7.4, 1 h): 57.1% | % remaining ([2]; pH 7.4, 2 h): 41.1% | % remaining ([2]; pH 7.4, 4 h): 37.5% | % remaining ([2]; pH 7.4, 8 h): 46.3% | % remaining ([2]; pH 7.4, 24 h): 46.0% | % remaining ([2]; pH 7.4, 48 h): 36.6% | % remaining ([2]; pH 9, 0 h): 100.0% | % remaining ([2]; pH 9, 1 week): 9.2% | % remaining ([2]; pH 9, 1 h): 17.7% | % remaining ([2]; pH 9, 2 h): 7.8% | % remaining ([2]; pH 9, 4 h): 7.6% | % remaining ([2]; pH 9, 8 h): 7.5% | % remaining ([2]; pH 9, 24 h): 6.6% | % remaining ([2]; pH 9, 48 h): 8.1% | Papp A→B [3]: 0.5 ×10⁻⁶ cm/s | Papp B→A [3]: 0.6 ×10⁻⁶ cm/s | efflux ratio [3]: 1.2 | recovery ([3]; Caco-2, % Recovery A to B): 98.5% | recovery ([3]; Caco-2, % Recovery B to A): 89% | clearance in human hepatocytes (in words) (human hepatocytes): medium clearance | % Parent Remaining (human hepatocytes; 0 mins): 100% | % Parent Remaining (human hepatocytes; 15 mins): 97% | % Parent Remaining (human hepatocytes; 30 mins): 87.6% | % Parent Remaining (human hepatocytes; 60 mins): 73.0% | % Parent Remaining (human hepatocytes; 90 mins): 66.4%

half-life at 1 μM [1]: 0.761 h | hepatocyte CLint at 1 μM [1]: 15.2 µL/min/1e6 cells | % remaining [2, 4]: 95.54% | % remaining [2, 5]: 91.04% | % remaining [2, 6]: 94.73% | % remaining [2, 7]: 93.68% | % remaining [2, 8]: 93.65% | % remaining [2, 9]: 93.69% | % remaining [2, 10]: 93.61% | % remaining [2, 11]: 93.58% | % remaining [2, 12]: 96.45% | % remaining [2, 13]: 84.49% | % remaining [2, 14]: 96.01% | % remaining [2, 15]: 96.02% | % remaining [2, 16]: 95.96% | % remaining [2, 17]: 95.77% | % remaining [2, 18]: 94.28% | % remaining [2, 19]: 93.75% | % remaining ([2]; pH 1, 0 h): 95.73% | % remaining ([2]; pH 1, 1 week): 95.56% | % remaining ([2]; pH 1, 1 h): 95.69% | % remaining ([2]; pH 1, 2 h): 95.64% | % remaining ([2]; pH 1, 4 h): 95.61% | % remaining ([2]; pH 1, 8 h): 95.64% | % remaining ([2]; pH 1, 24 h): 95.61% | % remaining ([2]; pH 1, 48 h): 95.64% | % remaining ([2]; pH 2, 0 h): 95.67% | % remaining ([2]; pH 2, 1 week): 95.39% | % remaining ([2]; pH 2, 1 h): 95.65% | % remaining ([2]; pH 2, 2 h): 95.66% | % remaining ([2]; pH 2, 4 h): 95.64% | % remaining ([2]; pH 2, 8 h): 95.67% | % remaining ([2]; pH 2, 24 h): 95.56% | % remaining ([2]; pH 2, 48 h): 95.54% | % remaining ([2]; pH 4, 0 h): 95.37% | % remaining ([2]; pH 4, 1 week): 94.76% | % remaining ([2]; pH 4, 1 h): 95.32% | % remaining ([2]; pH 4, 2 h): 95.27% | % remaining ([2]; pH 4, 4 h): 95.25% | % remaining ([2]; pH 4, 8 h): 95.26% | % remaining ([2]; pH 4, 24 h): 95.26% | % remaining ([2]; pH 4, 48 h): 95.05% | % remaining ([2]; pH 6, 0 h): 96.31% | % remaining ([2]; pH 6, 1 week): 94.47% | % remaining ([2]; pH 6, 1 h): 96.32% | % remaining ([2]; pH 6, 2 h): 96.26% | % remaining ([2]; pH 6, 4 h): 96.27% | % remaining ([2]; pH 6, 8 h): 96.25% | % remaining ([2]; pH 6, 24 h): 95.73% | % remaining ([2]; pH 6, 48 h): 95.66% | % remaining ([2]; pH 7.4, 0 h): 95.8% | % remaining ([2]; pH 7.4, 1 week): 61.5% | % remaining ([2]; pH 7.4, 1 h): 95.7% | % remaining ([2]; pH 7.4, 2 h): 94.95% | % remaining ([2]; pH 7.4, 4 h): 94.34% | % remaining ([2]; pH 7.4, 8 h): 93.43% | % remaining ([2]; pH 7.4, 24 h): 90.13% | % remaining ([2]; pH 7.4, 48 h): 83.6% | % remaining ([2]; pH 9, 0 h): 94.05% | % remaining ([2]; pH 9, 1 week): 0% | % remaining ([2]; pH 9, 1 h): 74.72% | % remaining ([2]; pH 9, 2 h): 56.28% | % remaining ([2]; pH 9, 4 h): 49.14% | % remaining ([2]; pH 9, 8 h): 23.34% | % remaining ([2]; pH 9, 24 h): 14.94% | % remaining ([2]; pH 9, 48 h): 0.63% | Papp A→B [3]: 0.9 ×10⁻⁶ cm/s | Papp B→A [3]: 0.8 ×10⁻⁶ cm/s | efflux ratio [3]: 1 | recovery ([3]; Caco-2, % Recovery A to B): 94.9% | recovery ([3]; Caco-2, % Recovery B to A): 90.7% | clearance in human hepatocytes (in words) (human hepatocytes): medium clearance
Structure (SMILES): O=C(OC[C@H]1OC(O)[C@H](O)[C@@H]1O)c1ccccn1 (stereo partly shown) [Compound 102, (3,4,5-trihydroxytetrahydrofuran-2-yl) methyl picolinate]
NAD+ level increase compared to untreated cells (Huh-7 Cells): showed an increase
